Like-named read-outs stand apart in the source and are kept apart here.
Biological target: T1, VMAT2 (Rattus norvegicus, UniProt Q01827)
T1 construct: the VMAT2 present in isolated cerebral cortical vesicles; from tissue; host or cells: rat cerebral cortex, synaptic vesicles purified by differential centrifugation
Test: VMAT2 functional assay ([3H]-dopamine uptake into isolated vesicles)
Type: biochemical
Details: rat cortical vesicles, [3H]-dopamine 30 nM, 30 min pre-incubation, 15 min uptake, room temperature
Experimental: VMAT2 Functional Assay determines the interaction between the compounds of the present invention and the VMAT2 present in isolated cerebral cortical vesicles.
Transporter Source: Rat cortical vesicles
Buffers: 100 mM potassium tartrate, 1.7 mM ascorbic acid, 0.05 mM EGTA, 0.1 mM EDTA, 2 mM Magnesium-ATP and 25 mM HEPES.
RadioLigand: • Monoamine: [3H]-Dopamine • Final ligand concentration: 30 nM
Vmax (transport rate): 1800 fmol/mg tissue/min
Positive reference-control: • Reserpine • Concentration: 10 μM
(1) Rat cortical vesicles were purified using differential centrifugation, and the vesicles obtained were diluted in the assay buffer and pre-incubated with the positive-reference-control, the comparative sample or a compound of the invention for 30 minutes at room temperature.
(2) Uptake begins with the addition of [3H]-dopamine and the mixture is allowed to incubate for 15 minutes at room temperature.
(3) After that time, the reaction was stopped by vacuum filtration, and the amount of radioactivity of the radiolabeled [3H]-dopamine trapped onto the filters was determined.
(4) The radioactivity of the [3H]-dopamine trapped was determined using liquid scintillation spectrophotometry (Beckman and Perkin Elmer). The amount of radioactivity obtained with the comparative sample or a compound of the invention was compared with the amount of radioactivity obtained with the positive-reference control (reserpine).
The IC50 value is converted to an absolute inhibition constant Ki using the Cheng-Prusoff equation. Two separate independent experiments were performed.

[1] = Experiment 1, read-out: IC50 (nM) Experiment 1

T1 sequence (Q01827 whole entry): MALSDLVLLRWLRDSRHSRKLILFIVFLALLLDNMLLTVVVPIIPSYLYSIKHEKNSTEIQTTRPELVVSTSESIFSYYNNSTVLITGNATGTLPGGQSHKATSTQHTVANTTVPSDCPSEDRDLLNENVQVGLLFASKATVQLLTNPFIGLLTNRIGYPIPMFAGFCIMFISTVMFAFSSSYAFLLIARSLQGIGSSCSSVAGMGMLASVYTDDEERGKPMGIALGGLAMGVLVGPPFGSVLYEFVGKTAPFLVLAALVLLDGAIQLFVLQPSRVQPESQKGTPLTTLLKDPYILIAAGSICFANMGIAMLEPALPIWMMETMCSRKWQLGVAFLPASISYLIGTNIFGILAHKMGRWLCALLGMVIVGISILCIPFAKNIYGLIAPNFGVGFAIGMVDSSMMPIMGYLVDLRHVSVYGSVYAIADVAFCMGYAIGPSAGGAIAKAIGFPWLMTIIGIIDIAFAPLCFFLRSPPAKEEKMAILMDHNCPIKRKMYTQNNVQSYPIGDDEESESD

With C[C@@H](NCCCc1cccc(C(F)(F)F)c1)c1cccc2ccccc12 [Cinacalcet (IB)] the IC50 [1] was 44.6 nM.
Molecule CC(COc1ccccc1)N(CCCl)Cc1ccccc1 (racemic) [Phenoxybenzamine (IC), (RS)—N-benzil-N-(2-chloroetyl)-1-phenoxy-propan-2-amine] has an IC50 [1] of 58.1 nM.
In the case of COc1ccc(CCNCC(O)COc2cccc(C)c2)cc1OC (racemic) [Bevantolol (IA), (RS)-[2-(3,4-dimethoxyphenyl)ethyl][2-hydroxy-3-(3-methylphenoxy)propyl]amine], the IC50 [1] is reported as 42.8 nM and the IC50 (Experiment 2, read-out: IC50 (nM) Experiment 2) is reported as 63 nM.

Reference: US9789072B2, “Therapeutic agents for use in the propylaxis and/or treatment of hyperkinetic movement disorders” (SOM INNOVATION BIOTECH, S.L., priority 2013, dated 2017)
